Assay results taken from patent US20100003217A1, “Compounds and Pharmaceutical Compositions for the Treatment of Viral Infections” (priority 2008, published 2010).
“And” between values parts separate entries of the source, which are not always exact repeats. Equal values may be shown once.

Tests used:
[1] = Metabolite profiling in rat liver microsomes; format: in vitro ADME; set-up: key: +: peak detected; ?: peak observed; ND: not detected; conditions: 50 μM Compound 1, 2 hours
Method: Preliminary identification of putative metabolites was conducted by comparing the retention time of observed metabolites with retention times obtained with chemically synthesized standards using the following HPLC-UV method:
Incubations with liver microsomes, liver cytosol or pig liver esterase were conducted in a final volume of 0.1 mL per incubation time point. Pooled microsomal protein (1.0 mg/mL) suspended in incubation buffer (0.1 M potassium phosphate, pH 7.4) was incubated for 2 hours at 37° C. with 50 μM Compound 1 from a stock solution in DMSO (final DMSO concentration was 0.1%); the microsomal reaction was initiated by the addition of an NADPH regenerating system (1.3 mM NADP^+, 3.3 mM glucose-6-phosphate, 0.4 U/ml glucose-6-phosphate dehydrogenase, and 3.3 mM MgCl2, final concentrations). Incubations with no NADPH or no protein served as controls. Reactions were terminated by the addition of 0.1 mL of stop solution (acetonitrile). The samples were vortex-mixed for 30 sec and then centrifuged at 10,000×g for 10 min. The supernatant was dried using a Labconco CentriVap concentrator and the dry residue reconstituted in water, transferred to an HPLC glass vial and analyzed by HPLC-UV method 2 (described above).
Results: Preliminary identification was accomplished by comparing LC elution of metabolites with that of available synthetic standards of putative metabolites (FIG. 2). […]

[2] = Metabolite profile in rat feces; format: in vivo, male Sprague-Dawley rats; conditions: for Percent of Dose, Feces 0-24 h: after [14C]Compound 1; for % AD / % HPLC (percent of HPLC peak area in the sample extract) / fecal component, % of the administered dose (% AD): 24 h collection; for % of the total fecal excretion / fecal component, % of the administered dose (% AD): rat feces
Method: Pooled samples were prepared for the 24 h time interval from Groups 1C and 2C by combining a fixed percentage of the total weight of each individual animal sample homogenate for each group. The aliquots were pooled in a 15-mL polypropylene centrifuge tube. To the pooled sample (approximately 3 g each), 4.5 mL of MeOH-water (70:30) was added. The sample was vortexed for one minute, sonicated for 10 minutes, and then centrifuged at 5700×g for 10 minutes. The supernatant was transferred to a tube and the total volume of the supernatant was measured. The extraction procedure was repeated two additional times. The radioactivity in each extract was determined by LSC of duplicate aliquots (20 μL each) for extraction recovery. A portion (10% of total volume) of each extract was pooled for analysis by LSC and HPLC. The combined extracts were diluted (1:4) with aqueous mobile phase and analyzed using HPLC method 1 to obtain the metabolic profile. For comparing the in vitro with the in vivo metabolism data, these same fecal samples were analyzed by HPLC method 2.
Percent of the administered dose (% AD) for parent drug and each metabolite at each collection period=(% of the total radioactivity in the sample attributed to the metabolite)*(total radioactivity expressed as % of the administered dose, recovered during the corresponding collection period).
The samples were analyzed by HPLC with radiochemical detection. The distribution of metabolites as % of the administered dose was derived from these analyses. Both pooled fecal extracts were also analyzed by HPLC method 2. Metabolites R^1, R^2, R^3, R^4, R^5, R^6, R^7 and R^8 were characterized based on retention time.

[3] = test system: primary hepatocytes (human, monkey, rat); assay: Primary hepatocytes, statements pooled over human, monkey and rat; format: in vitro ADME
Method: Primary hepatocytes: Freshly isolated cells from animal and human liver were obtained in suspension on ice. Cells were pelleted by centrifugation at 70-75×g (rat) or 95-90×g (monkey and human) and resuspended at 0.8 million cells per mL of platting medium (William's E supplemented with 5% FBS, 0.5% penicillin-streptomycin, 1% L-glutamine, 4 μg/mL insulin and 1 μM dexamethasone). Multi-well collagen I-coated plates (rat tail collagen type I; 12- or 6-well) were then seeded by addition of 1 mL (12-well; 0.8 million cells/well) or 2 mL (6-well; 1.6 million cells/well) of cell suspension. […]
Cellular extracts were prepared by centrifugation at 16,000 RCF using an Eppendorf microcentrifuge (Eppendorf, Model 5415D) for 10 min to remove cellular debris. An aliquot of 5-10 μL of the supernatant was added to 5 mL of EcoLite™ (MP, Irvine, Calif.) liquid scintillation cocktail and radioactivity measured by liquid scintillation counting (LSC) using a Beckman Coulter LS6500 multipurpose liquid scintillation counter (Beckman Instruments, Fullerton, Calif.). […] Prior to HPLC analysis (described below), radioactivity of the concentrated extracts was measured by LSC using 5 μL aliquots. Extraction recovery was then determined by comparing total radioactivity in extracts before and after drying. […] Samples with poor recovery (<85%) were re-analyzed when possible. […]

[4] = group 1C (IV) pooled fecal extract
[5] = group 2C (PO) pooled fecal extract

Row | Compound | In vitro metabolite profile in microsomes following incubation with Compound 1 (peak detection) [1] | Total excretion (% AD), feces ([2]; IV (1C)) | Percent of Dose, Feces 0-24 h ([2]; IV) | Percent of Dose, Feces 0-24 h ([2]; Oral) | Total excretion (% AD), feces ([2]; PO (2C)) | % AD [2, 4] | % HPLC (percent of HPLC peak area in the sample extract) [2, 4] | % AD [2, 5] | % HPLC (percent of HPLC peak area in the sample extract) [2, 5] | % of the total fecal excretion ([2]; IV dose 50 mg/kg) | fecal component, % of the administered dose (% AD) ([2]; IV dose 50 mg/kg, 50 mg/kg) | % of the total fecal excretion ([2]; PO dose 100 mg/kg) | fecal component, % of the administered dose (% AD) ([2]; PO dose 100 mg/kg, 100 mg/kg) | % of the total intracellular radioactivity ([3]; extracts of primary hepatocytes, all three species, 4-24 hours, [^14C]-Compound 1) | metabolites in the incubation medium following incubation with [^14C]-2′-C-methyl guanosine ([3]; primary hepatocytes, 10 μM or 1 μM)
1 | CC(C)(CO)C(=O)SCCOP(=O)(NCc1ccccc1)OC[C@H]1O[C@@H](n2cnc3c(=O)[nH]c(N)nc32)[C@](C)(O)[C@@H]1O (mixture of isomers) [Compound 1, 3-hydroxy-2,2-dimethyl-thiopropionic acid S-(2-{[(2R,3R,4R,5R)-5-(2-amino-6-oxo-1,6-dihydro-purin-9-yl)-3,4-dihydroxy-4-methyl-tetrahydro-furan-2-ylmethoxy]-benzylamino-phosphoryloxy}-ethyl) ester] | + | 19.7 % AD | 19.7% of Dose | 65.6% of Dose | 65.6 % AD | 19.7 % AD | 50.6% | 65.6 % AD | 71.9% | 50.6% | 19.7 % AD and 20 % AD | 71.9% | 65.6 % AD and 66 % AD | – | –
2 | C[C@@]1(O)[C@H](O)[C@@H](COP(=O)(O)OP(=O)(O)OP(=O)(O)O)O[C@H]1n1cnc2c(=O)[nH]c(N)nc21 [Compound 7, [(2R)-2-methyl-β-D-ribofuranosyl]guanine 5′-triphosphate] | – | – | – | – | – | – | – | – | – | – | – | – | – | 60-81% | –
3 | C[C@@]1(O)[C@H](O)[C@@H](CO)O[C@H]1n1cnc2c(=O)[nH]c(N)nc21 [2′-C-methyl guanosine, 9-(2-C-methyl-β-D-ribofuranosyl)guanine, reference compound] | + | 16.0 % AD | 16.0% of Dose | 25.6% of Dose | 25.6 % AD | 16.0 % AD | 41.0% | 25.6 % AD | 28.1% | 41.0% | 16 % AD | 28.1% | 25.6 % AD and 26 % AD | – | No metabolites were observed
